Legend:
[1] = Determination of the surface tension; type: physicochemical; conditions: 25° C.; UV absorber concentrations from about 1 mg/l to 5,000 mg/l
Description: The surface tension (ST) of the UV absorbers 1C and 1F was determined at 25° C. at concentrations of the UV absorber of from about 1 mg/l to 5,000 mg/l (Table 4). The ST of water to air is, for comparison, 72.4 mN/m, the ST of commercial surfactants is about 30-35 mN/m. […] It was also shown that UV absorbers according to the invention are similar in surface activity to commercial surfactants.

[2] = UV-stabilizing effect: residual metaflumizone after exposure to light (Atlas Suntest), HPLC; type: physicochemical; conditions: dried film; for Residual metaflumizone content (%) after 1 day: continuous light 1 day; for Residual metaflumizone content (%) after 1 week: continuous light seven days
Description: UV-Stabilizing Effect A formulation comprising 100 g/l of metaflumizone and 40 g/l of UV absorber was prepared as described in Example 2. The formulation was diluted with water such that an active content of 10 g/l (Table 3) or 1 g/l (Table 4) was obtained.
About 20 mg of the formulation thus prepared were placed on a microscope slide, allowed to dry for 30 minutes and then exposed to light for one or seven days continuously (Atlas Suntest CRT plus, “Outdoor” setting, irradiation corresponds to the same spectrum and intensity as normal sunlight at midday in summer). After the exposure time, the samples were dissolved in dimethyl sulfoxide. The residual level of metaflumizone was determined by means of quantitative HPLC (column: BEH C18 1.7 μm 2.1×100; elution with a gradient of acetonitrile/0.1% H3PO4 rising from 5/95:95/5). For comparison, each exposure series run included a sample without UV absorber (reference). Evaluation: 2 samples were treated as blank samples by immediately redissolving them after drying, without exposure to light, and determining the metaflumizone content. The resulting mean was set equal to 100% and the remaining samples were standardized against that.
A commercial formulation of metaflumizone (Alverde®) comprising 240 g/l of metaflumizone was diluted with water to an active content of 10 g/l. Various UV absorbers were added (Table 5) and analyzed as described under Example 4A.

[3] = Alverde® diluted to 10 g/l metaflumizone, UV absorber added
[4] = formulation 100 g/l metaflumizone + 40 g/l UV absorber diluted to 1 g/l metaflumizone
[5] = formulation 100 g/l metaflumizone + 40 g/l UV absorber diluted to 10 g/l metaflumizone

With “3-(3-benzotriazol-2-yl-5-tert-butyl-4-hydroxyphenyl)propionic acid [tridecanol-EO18]ester [Example 1F]” the “ST (surface tension)” value [1] was 34.7 mN/m.
With COCCOCCOCCOCCOCCOCCOCCOC(=O)CCc1cc(-n2nc3ccccc3n2)c(O)c(C(C)(C)C)c1 [Example 1C, 3-(3-benzotriazol-2-yl-5-tert-butyl-4-hydroxyphenyl)propionic acid [Pluriol A350E]ester] the “Residual metaflumizone content (%) after 1 day” value [2, 3] was 34%, the “Residual metaflumizone content (%) after 1 week” value [2, 3] was 1% and the “Residual metaflumizone content (%) after 1 day” value [2, 4] was 45%. For the same molecule, the “Residual metaflumizone content (%) after 1 week” value [2, 4] was 16%, the “Residual metaflumizone content (%) after 1 day” value [2, 5] was 89% and the “Residual metaflumizone content (%) after 1 week” value [2, 5] was 55%. The “ST (surface tension)” value [1] was 39.5 mN/m.
With COCCOCCOCCOCCOCCOCCOCCOC(=O)CCc1cc(-n2nc3ccc(Cl)cc3n2)c(O)c(C(C)(C)C)c1 [Example 1J, 2-(5-chloro-2H-benzotriazol-2-yl)-6-tert-butyl-4-hydroxyphenylpropionic acid [Pluriol A350E]ester] the “Residual metaflumizone content (%) after 1 day” value [2, 3] was 46% and the “Residual metaflumizone content (%) after 1 week” value [2, 3] was 30%.
With “p-Aminobenzoic acid ethoxylate (45) [Uvinul ® P25]” the “ST (surface tension)” value [1] was 56.9 mN/m.
